According to the NIST ThermoML archive (doi:10.1016/j.jct.2013.03.001):
± gives the expanded uncertainty stated by the source.

Assays:
[1] = Crystal; DTA
[2] = Molar enthalpy of transition or fusion; details: Crystal; DSC
[3] = molar enthalpy of vaporization or sublimation; details: 298.15 K; Crystal; Static calorimetry

SMILES | Normal melting temperature [1] | Molar enthalpy of transition or fusion [2] | molar enthalpy [3]
O=c1cccc(Cl)[nH]1 [2(1H)-pyridinone, 6-chloro-] | 128.46 ± 0.39 °C | 4.39 ± 0.112 kcal/mol | 21.9 ± 0.311 kcal/mol
Oc1cncc(Cl)c1 [3-chloro-5-hydroxypyridine] | 159.76 ± 0.41 °C | 5.16 ± 0.139 kcal/mol | 23.8 ± 0.478 kcal/mol
Oc1cccnc1Cl [2-chloro-3-hydroxypyridine] | 169.99 ± 0.41 °C | 6.39 ± 0.148 kcal/mol | 21.3 ± 0.43 kcal/mol
